# Test results reported in article PMC9963398, “Discovery of New Quinolone-Based Diarylamides as Potent B-RAF^V600E/C-RAF Kinase Inhibitors Endowed with Promising In Vitro Anticancer Activity” (International Journal of Molecular Sciences, 2023).
# How the values were obtained:
# Assay in all cases: NCI-60 five-dose SRB assay
# Type in all cases: cell-based
# U251 = conditions: Homo sapiens, U-251; U251, CNS cancer, five-dose test
# Protocol: (§1) The anticancer screening of target compounds over a full panel of 60 human cancer cell lines was carried out using Sulforhodamine B (SRB) assay at the National Cancer Institute (NCI), Bethesda, Maryland, USA, employing the standard protocol.
# SW-620 = conditions: Homo sapiens; SW-620, Colon cancer, five-dose test
# Protocol: as §1
# OVCAR-5 = conditions: Homo sapiens; OVCAR-5, Ovarian cancer, five-dose test
# Protocol: as §1
# MDA-MB-435 = conditions: Homo sapiens; MDA-MB-435, Melanoma, five-dose test
# Protocol: as §1
# M14 = conditions: Homo sapiens; M14, Melanoma, five-dose test
# Protocol: as §1
# SNB-75 = conditions: Homo sapiens; SNB-75, CNS cancer, five-dose test
# Protocol: as §1
# ACHN = conditions: Homo sapiens, Renal cancer, five-dose test
# Protocol: as §1
# CCRF-CEM = conditions: Homo sapiens, Leukemia, five-dose test
# Protocol: as §1
# SK-MEL-5 = conditions: Homo sapiens; SK-MEL-5, Melanoma, five-dose test
# Protocol: as §1
# HCC-2998 = conditions: Homo sapiens; HCC-2998, Colon cancer, five-dose test
# Protocol: as §1
# 786-0 = conditions: Homo sapiens; 786-0, Renal cancer, five-dose test
# Protocol: as §1
# SF-539 = conditions: Homo sapiens; SF-539, CNS cancer, five-dose test
# Protocol: as §1
# COLO 205 = conditions: Homo sapiens; COLO 205, Colon cancer, five-dose test
# Protocol: as §1
# CAKI-1 = conditions: Homo sapiens; CAKI-1, Renal cancer, five-dose test
# Protocol: as §1
# SF-268 = conditions: Homo sapiens; SF-268, CNS cancer, five-dose test
# Protocol: as §1
# DU-145 = conditions: Homo sapiens; DU-145, Prostate cancer, five-dose test
# Protocol: as §1
# BT-549 = conditions: Homo sapiens; BT-549, Breast cancer, five-dose test
# Protocol: as §1
# SK-OV-3 = conditions: Homo sapiens; SK-OV-3, Ovarian cancer, five-dose test
# Protocol: as §1
# HCT-116 = conditions: Homo sapiens; HCT-116, Colon cancer, five-dose test
# Protocol: as §1
# SF-295 = conditions: Homo sapiens; SF-295, CNS cancer, five-dose test
# Protocol: as §1
# OVCAR-3 = conditions: Homo sapiens; OVCAR-3, Ovarian cancer, five-dose test
# Protocol: as §1
# SR = conditions: Homo sapiens, Leukemia, five-dose test
# Protocol: as §1
# UO-31 = conditions: Homo sapiens; UO-31, Renal cancer, five-dose test
# Protocol: as §1
# HS 578T = conditions: Homo sapiens, Breast cancer, five-dose test
# Protocol: as §1
# OVCAR-4 = conditions: Homo sapiens; OVCAR-4, Ovarian cancer, five-dose test
# Protocol: as §1
# SK-MEL-28 = conditions: Homo sapiens; SK-MEL-28, Melanoma, five-dose test
# Protocol: as §1
# HOP-92 = conditions: Homo sapiens; HOP-92, NSCL cancer, five-dose test
# Protocol: as §1
# SN12C = conditions: Homo sapiens, Renal cancer, five-dose test
# Protocol: as §1
# LOX IMVI = conditions: Homo sapiens, Melanoma, five-dose test
# Protocol: as §1
# EKVX = conditions: Homo sapiens, NSCL cancer, five-dose test
# Protocol: as §1
# MCF7 = conditions: Homo sapiens; MCF7, Breast cancer, five-dose test
# Protocol: as §1
# NCI-H322M = conditions: Homo sapiens, NSCL cancer, five-dose test
# Protocol: as §1
# UACC-257 = conditions: Homo sapiens; UACC-257, Melanoma, five-dose test
# Protocol: as §1
# OVCAR-8 = conditions: Homo sapiens; OVCAR-8, Ovarian cancer, five-dose test
# Protocol: as §1
# HL-60(TB) = conditions: Homo sapiens, Leukemia, five-dose test
# Protocol: as §1
# KM12 = conditions: Homo sapiens; KM12, Colon cancer, five-dose test
# Protocol: as §1
# TK-10 = conditions: Homo sapiens; TK-10, Renal cancer, five-dose test
# Protocol: as §1
# T-47D = conditions: Homo sapiens, T47D, Breast cancer, five-dose test
# Protocol: as §1
# NCI-H522 = conditions: Homo sapiens; NCI-H522, NSCL cancer, five-dose test
# Protocol: as §1
# HCT-15 = conditions: Homo sapiens; HCT-15, Colon cancer, five-dose test
# Protocol: as §1
# IGROV1 = conditions: Homo sapiens, IGROV-1; IGROV1, Ovarian cancer, five-dose test
# Protocol: as §1
# MALME-3M = conditions: Homo sapiens, Melanoma, five-dose test
# Protocol: as §1
# NCI-H460 = conditions: Homo sapiens; NCI-H460, NSCL cancer, five-dose test
# Protocol: as §1
smiles,measurement,setting,value
"CCN1CCN(Cc2ccc(C(=O)Nc3cccc(Nc4ccc5c(OC)cccc5n4)c3)cc2C(F)(F)F)CC1 [Compound 14c, 4-((4-ethylpiperazin-1-yl)methyl)-N-(3-((5-methoxyquinolin-2-yl)amino)phenyl)-3-(trifluoromethyl)benzamide]",GI50,U251,1690 nM
same,GI50,SW-620,1450 nM
same,GI50,OVCAR-5,3280 nM
same,GI50,MDA-MB-435,1360 nM
same,GI50,M14,1470 nM
same,GI50,SNB-75,1200 nM
same,GI50,ACHN,1850 nM
same,GI50,CCRF-CEM,1970 nM
same,GI50,SK-MEL-5,1450 nM
same,GI50,HCC-2998,1590 nM
same,GI50,786-0,1410 nM
same,GI50,SF-539,1370 nM
same,GI50,COLO 205,1740 nM
same,GI50,CAKI-1,1460 nM
same,GI50,SF-268,2170 nM
same,GI50,DU-145,2550 nM
same,GI50,BT-549,5350 nM
same,GI50,SK-OV-3,12600 nM
same,GI50,HCT-116,1450 nM
same,GI50,SF-295,1520 nM
same,GI50,OVCAR-3,1800 nM
same,GI50,SR,1870 nM
same,GI50,UO-31,2330 nM
same,GI50,HS 578T,1960 nM
same,GI50,OVCAR-4,2890 nM
same,GI50,SK-MEL-28,1560 nM
same,GI50,HOP-92,1580 nM
same,GI50,SN12C,3620 nM
same,GI50,LOX IMVI,1450 nM
same,GI50,EKVX,4060 nM
same,GI50,MCF7,1500 nM
same,GI50,NCI-H322M,3500 nM
same,GI50,UACC-257,1510 nM
same,GI50,OVCAR-8,6780 nM
same,GI50,HL-60(TB),1570 nM
same,GI50,KM12,2200 nM
same,GI50,TK-10,8670 nM
same,GI50,T-47D,2110 nM
same,GI50,NCI-H522,1700 nM
same,GI50,HCT-15,1580 nM
same,GI50,IGROV1,3090 nM
same,GI50,MALME-3M,1440 nM
same,GI50,NCI-H460,1470 nM
